Results reported in patent publication US12691103B2 (Jinan University, priority 2022, dated 2026).
Where a name gives a salt, the structure may show the parent alone. Ends that are not written are not given here.

Tests used:
busulfan-modeled mice = details: model group, busulfan 30 mg/kg single intraperitoneal injection; compared with the control group
Description: The Kunming mice are injected intraperitoneally with busulfan (30 mg/kg). An average weight of the mice is 27 grams (g). Each mouse is injected with 0.8 mg busulfan. A total of 40 mice are modeled.
After one week of modeling the mice, the average weight of the experimental mice is grams (g). […] The control group and the model group are injected with the equivalent amount of physiological saline.
After the mice are anesthetized and sacrificed, the left epididymal tail is immediately removed for semen analysis. The left testis is stored at −80° C., and the parameters such as protein and messenger ribonucleic acid (mRNA) expression are detected. The right testis and right epididymis are fixed with 4% paraformaldehyde for further histological analysis.
(2) Staining with hematoxylin: the soaked sections are taken out and dried, a hematoxylin staining solution is added to cover the tissue and stained for 3 minutes.
(3) Differentiation: a differentiation solution is dropped at the sections, after 5-6 seconds (s), when observing that the color has faded, the section can be rinsed with the ultrapure water.
(4) Bluing: hematoxylin bluing solution is dropped at the section, after 5-6 seconds, when observing the color blue, the sections can be rinsed with the ultrapure water. […]

[1] = test system: men with oligospermia with hypogonadism; details: cited from earlier work
[2] = after administration (oral); cited from earlier work
[3] = test system: patients with oligospermia; details: GnRH supplementation; cited from earlier work

Question: For CS(=O)(=O)OCCCCOS(C)(=O)=O [busulfan], which “structure of seminiferous tubules (HE staining of testes)” value (busulfan-modeled mice) is on record?
Answer: severely damages

Question: With CCN(CC)CCOc1ccc(C(=C(Cl)c2ccccc2)c2ccccc2)cc1 [clomiphene citrate] as the compound, how does the “bone mineral density of patients” value ([1]; 12-month treatment) read?
Answer: significantly reduce

Question: And the “usefulness in men with oligospermia with hypogonadism” value ([1]; in vivo)?
Answer: proven to be useful

Question: With Nc1nc2ccc(OC(F)(F)F)cc2s1 [riluzole, 2-amino-6-trifluomethoxy-benzothiazole] as the compound, how does the “time to peak of blood concentration” value [2] read?
Answer: 60 to 90 min

Question: With “GnRH: gonadotropin-releasing hormone supplementation (QHWSYGLRPG; ends and bridges not checked; UniProt P01148 24-33, looked up)” as the compound, how does the “patients who succeed in spermatogenesis” value [3] read?
Answer: 77%
